Experiments:
Format in all cases: functional
[1] = system: Rattus norvegicus; experiment: Antiinflammatory activity against carrageenan-induced paw edema in albino rat at 100 mg/kg, po administered 30 mins before carrageenan challenge measured after 1 to 3 hrs
[2] = system: Mus musculus; experiment: Analgesic activity in mouse assessed as decrease in acetic acid-induced writhing at 100 mg/kg, po administered 30 mins before acetic acid challenge measured after 1 hr; design: scale not given: the % may be the effect or the level left
[3] = system: Mus musculus; experiment: Analgesic activity in mouse assessed as decrease in acetic acid-induced writhing at 50 mg/kg, po administered 30 mins before acetic acid challenge measured after 1 hr; design: scale not given: the % may be the effect or the level left
[4] = system: Rattus norvegicus; experiment: Antiinflammatory activity against carrageenan-induced paw edema in albino rat at 50 mg/kg, po administered 30 mins before carrageenan challenge measured after 1 to 3 hrs
[5] = system: Mus musculus; experiment: Analgesic activity in mouse assessed as decrease in acetic acid-induced writhing at 25 mg/kg, po administered 30 mins before acetic acid challenge measured after 1 hr; design: scale not given: the % may be the effect or the level left
[6] = system: Rattus norvegicus; experiment: Antiinflammatory activity against carrageenan-induced paw edema in albino rat at 25 mg/kg, po administered 30 mins before carrageenan challenge measured after 1 to 3 hrs

Row | SMILES | Activity [1] | Activity [2] | Activity [3] | Activity [4] | Activity [5] | Activity [6]
1 | C/N=C(/NNS(=O)(=O)c1ccc(C)cc1)c1ccccn1 | 12% | 75% | – | – | – | –
2 | COc1ccc(S(=O)(=O)NN2C(=O)C(=O)N=C2c2ccccn2)cc1 | – | – | 18% | 20% | – | –
3 | Cc1ccc(S(=O)(=O)NN2C(=O)C(=O)N=C2c2ccccn2)cc1 | – | – | 60% | 31% | – | –
4 | C/N=C(/NNS(=O)(=O)c1ccc(OC)cc1)c1ccncc1 | – | – | 13% | 21% | – | –
5 | C/N=C(/NNS(=O)(=O)c1ccccc1)c1cnccn1 | – | – | 11% | 11% | – | –
6 | COc1ccc(S(=O)(=O)NN2C(=O)C(=O)N=C2c2ccncc2)cc1 | 34% | 75% | – | – | – | –
7 | C/N=C(/NNS(=O)(=O)c1ccc(OC)cc1)c1cnccn1 | – | – | 16% | 20% | – | –
8 | O=C1N=C(c2ccncc2)N(NS(=O)(=O)c2ccccc2)C1=O | – | – | 60% | 37% | – | –
9 | COc1ccc(S(=O)(=O)NN2C(=O)C(=O)N=C2c2cnccn2)cc1 | – | – | 12% | 13% | – | –
10 | C/N=C(/NNS(=O)(=O)c1ccc(C)cc1)c1ccncc1 | 56% | 33% | 17% | 44% | 9% | 27%
11 | O=C1N=C(c2cnccn2)N(NS(=O)(=O)c2ccccc2)C1=O | – | – | 30% | 25% | – | –
12 | C/N=C(/NNS(=O)(=O)c1ccccc1)c1ccncc1 | – | – | 7% | 16% | – | –
13 | C/N=C(/NNS(=O)(=O)c1ccc(OC)cc1)c1ccccn1 | – | – | 20% | 20% | – | –
14 | CCCCC1C(=O)N(c2ccccc2)N(c2ccccc2)C1=O [PHENYLBUTAZONE] | 58% | 58% | 40% | 37% | 24% | 19%

Reference: ChEMBL document CHEMBL1154431, “Synthesis of biologically active N-methyl derivatives of amidines and cyclized five-membered products of amidines with oxalyl chloride” (2008)
